{
  "source": "paper PMC8626637",
  "about": "“Successful Prediction of Human Fetal Exposure to P-Glycoprotein Substrate Drugs Using the Proteomics-Informed Relative Expression Factor Approach and PBPK Modeling and Simulation” (Drug Metabolism and Disposition, 2021)",
  "key": {"[1]": {"tested_on": "11 β-hydroxysteroid dehydrogenase-2", "set-up": "method as in Blanford and Murphy, 1977; Murphy et al., 2007", "conditions": "ref Blanford and Murphy, 1977, Murphy et al., 2007; cited from earlier work"}, "[2]": {"conditions": "ref DrugBank database; cited from earlier work"}, "[3]": {"assay": "Estimation of in vivo transplacental passive diffusion clearance by scaling midazolam CLint,PD,placenta with Papp ratio", "set-up": "species or system human", "conditions": "at term, scaled from midazolam by Papp ratio"}, "placental P-gp": {"tested_on": "placental P-gp", "assay": "m-f PBPK prediction of maternal-fetal pharmacokinetics at gestational week 20 (GW20)", "set-up": "species or system human", "description": "GW20 was chosen since this is the earliest gestational age at which all the fetal physiologic parameters (e.g., organ volumes, partition coefficients, blood flows) are available."}, "P-gp [4]": {"biological_target": "T1, P-gp (Homo sapiens, UniProt P08183)", "T1 sequence (P08183 whole entry)": "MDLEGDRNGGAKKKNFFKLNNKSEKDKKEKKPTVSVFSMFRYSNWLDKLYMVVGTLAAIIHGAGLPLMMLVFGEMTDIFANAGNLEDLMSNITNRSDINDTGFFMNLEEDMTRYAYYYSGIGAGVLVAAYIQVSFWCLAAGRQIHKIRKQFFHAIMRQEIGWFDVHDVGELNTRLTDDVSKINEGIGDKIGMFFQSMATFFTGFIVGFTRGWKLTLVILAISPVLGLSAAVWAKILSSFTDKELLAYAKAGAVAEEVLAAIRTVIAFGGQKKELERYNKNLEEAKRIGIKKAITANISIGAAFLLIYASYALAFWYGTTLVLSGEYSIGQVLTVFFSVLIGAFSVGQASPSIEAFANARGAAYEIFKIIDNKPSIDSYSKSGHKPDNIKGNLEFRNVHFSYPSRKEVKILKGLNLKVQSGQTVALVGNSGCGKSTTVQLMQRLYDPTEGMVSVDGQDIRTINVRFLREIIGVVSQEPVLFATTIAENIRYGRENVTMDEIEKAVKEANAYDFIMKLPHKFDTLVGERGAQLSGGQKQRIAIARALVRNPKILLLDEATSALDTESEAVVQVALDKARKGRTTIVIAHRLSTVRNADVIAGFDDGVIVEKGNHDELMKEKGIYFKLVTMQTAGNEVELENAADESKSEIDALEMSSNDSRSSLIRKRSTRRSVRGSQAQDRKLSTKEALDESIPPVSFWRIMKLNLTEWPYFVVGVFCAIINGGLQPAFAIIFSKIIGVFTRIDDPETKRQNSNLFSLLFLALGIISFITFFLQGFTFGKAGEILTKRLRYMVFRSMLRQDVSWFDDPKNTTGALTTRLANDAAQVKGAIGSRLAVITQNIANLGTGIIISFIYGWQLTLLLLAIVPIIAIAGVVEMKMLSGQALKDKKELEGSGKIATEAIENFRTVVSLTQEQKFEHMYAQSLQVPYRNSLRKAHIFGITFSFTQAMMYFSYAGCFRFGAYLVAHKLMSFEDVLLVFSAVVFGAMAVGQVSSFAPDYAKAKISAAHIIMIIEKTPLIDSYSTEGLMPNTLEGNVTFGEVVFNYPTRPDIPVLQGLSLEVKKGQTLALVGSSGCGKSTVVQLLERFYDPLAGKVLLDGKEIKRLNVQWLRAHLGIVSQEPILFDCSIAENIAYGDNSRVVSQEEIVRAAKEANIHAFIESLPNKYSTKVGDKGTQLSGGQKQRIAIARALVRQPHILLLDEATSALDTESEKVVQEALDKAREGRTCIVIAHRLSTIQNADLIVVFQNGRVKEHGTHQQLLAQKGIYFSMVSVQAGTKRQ", "conditions": "for ERP-gp ERTRQ(−) − ERTRQ(+): P-gp-mediated efflux ratio"}, "P-gp [5]": {"biological_target": "T1, P-gp", "assay": "in vitro", "conditions": "MDCK-MDR1, pH 7.4"}, "[6]": {"assay": "Observed or PopPK-model (published) maternal and fetal UV plasma pharmacokinetics in pregnant women", "conditions": "coadministered with RTV"}, "[7]": {"conditions": "in vivo, at term; ref Zhang and Unadkat, 2017; cited from earlier work"}, "MDCKII or Caco-2 cells": {"tested_on": "MDCKII or Caco-2 cells", "conditions": "determined in MDCKII or Caco-2 cells; ref Zhang and Unadkat, 2017; cited from earlier work"}},
  "note": "Several values for one entry are separate records, joined by “and”; a condition that tells them apart may be missing. Equal entries are not always repeated. Where two headings read alike, the source gives them in different places.",
  "data": [
    {"smiles": "C[C@H]1C[C@H]2[C@@H]3CCC4=CC(=O)C=C[C@]4(C)[C@@]3(F)[C@@H](O)C[C@]2(C)[C@@]1(O)C(=O)CO", "note": "[BET, betamethasone]", "values": [
      {"measurement": "metabolized over 6 hours in vitro in placental microsomes", "setting": "[1]", "result": "10%–15%"}
    ]},
    {"smiles": "C[C@@H]1C[C@H]2[C@@H]3CCC4=CC(=O)C=C[C@]4(C)[C@@]3(F)[C@@H](O)C[C@]2(C)[C@@]1(O)C(=O)CO", "note": "[DEX, dexamethasone]", "values": [
      {"measurement": "metabolized over 6 hours in vitro in placental microsomes", "setting": "[1]", "result": "10%–15%"}
    ]},
    {"smiles": "CC(C)CN(C[C@@H](O)[C@H](Cc1ccccc1)NC(=O)O[C@H]1CO[C@H]2OCC[C@H]21)S(=O)(=O)c1ccc(N)cc1", "note": "[DRV, darunavir]", "values": [
      {"measurement": "solubility", "setting": "[2]", "result": 16, "unit": "µM"}
    ]},
    {"smiles": "Cc1cccc(C)c1OCC(=O)N[C@@H](Cc1ccccc1)[C@@H](O)C[C@H](Cc1ccccc1)NC(=O)[C@H](C(C)C)N1CCCNC1=O", "note": "[LPV, lopinavir]", "values": [
      {"measurement": "CLint,PD,placenta", "setting": "[3]", "result": 127, "unit": "L/h"},
      {"measurement": "CLint,P-gp,placenta", "setting": "placental P-gp; GW20, adjusted for total placental P-gp abundance", "result": 617, "unit": "L/h"},
      {"measurement": "CLint,PD,placenta", "setting": "placental P-gp; GW20, from term value adjusted for placental surface area", "result": 49.5, "unit": "L/h"},
      {"measurement": "CLint,P-gp,placenta at GW20, lower than the corresponding value at GW38", "setting": "placental P-gp; GW20 versus GW38", "result": 40, "unit": "%"},
      {"measurement": "fetal Kp,uu at GW20 as percent of that at GW38", "setting": "placental P-gp; m-f PBPK predicted", "result": 64, "unit": "%"},
      {"measurement": "fetal UV plasma AUC0-12 at GW20 as percent of that at GW38", "setting": "placental P-gp; m-f PBPK predicted", "result": 38, "unit": "%"},
      {"measurement": "fetal plasma Cmax at GW20 as percent of that at GW38", "setting": "placental P-gp; m-f PBPK predicted", "result": 41, "unit": "%"},
      {"measurement": "ERP-gp ERTRQ(−) − ERTRQ(+)", "setting": "P-gp [4]; Mean ± S.D. of 4 experiments", "result": "83.1 ± 10.1 and 83.1 ± 10.05"},
      {"measurement": "ERP-gp ERTRQ(−) − ERTRQ(+)", "setting": "P-gp [4]; individual experiments (Exp no. 1-4)", "result": "94.35 and 88.78 and 73.99 and 75.27"},
      {"measurement": "ERTRQ(−)", "setting": "P-gp [4]; efflux ratio without tariquidar, individual experiments (Exp no. 1-4, each in triplicate), 2 µM DEX, BET, DRV, 1 µM LPV", "result": "95.37 and 90.07 and 75.63 and 76.57"},
      {"measurement": "Papp", "setting": "P-gp [5]", "result": 12.5, "unit": "×10⁻⁶ cm/s"},
      {"measurement": "solubility", "setting": "[2]", "result": 3, "unit": "µM"},
      {"measurement": "observed increase in maternal clearance in pregnancy", "setting": "[6]", "result": 1.4, "unit": "fold"}
    ]},
    {"smiles": "Cc1ncc2n1-c1ccc(Cl)cc1C(c1ccccc1F)=NC2", "note": "[MDZ, midazolam]", "values": [
      {"measurement": "CLint,PD,placenta", "setting": "[7]", "result": 500, "unit": "L/h"},
      {"measurement": "Papp", "setting": "MDCKII or Caco-2 cells", "result": 49, "unit": "×10⁻⁶ cm/s"}
    ]},
    {"smiles": "C=C[C@H]1C[N@@]2CC[C@H]1C[C@@H]2[C@@H](O)c1ccnc2ccc(OC)cc12", "note": "[QND, Quinidine]", "values": [
      {"measurement": "efflux ratio at 3 µM", "setting": "P-gp [5]", "result": "11.1 ± 2.5"}
    ]}
  ]
}
